In PubChem BioAssay (NCI):
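In this assay, cells in 96-well plates receive the compound at five concentrations for 48 hours. Endpoints are linearly interpolated between the surrounding concentrations. TGI is the concentration that stops growth completely.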

Key:
Assay in all cases: growth of human tumour cells (NCI), 48 h
[1] = system: OVCAR-3 ovarian
[2] = system: SF-539 CNS
[3] = system: OVCAR-5 ovarian
[4] = system: DU-145 prostate
[5] = system: MDA-N
[6] = system: MOLT-4 leukemia
[7] = system: K-562 leukemia
[8] = system: CAKI-1 renal
[9] = system: SK-OV-3 ovarian
[10] = system: U251 CNS
[11] = system: A549 NSCLC
[12] = system: NCI-H522 lung
[13] = system: NCI-H460 lung
[14] = system: SK-MEL-28 melanoma
[15] = system: HCT-116 colon
[16] = system: MCF7 breast
[17] = system: HL-60(TB) leukemia
[18] = system: SK-MEL-2 melanoma
[19] = system: IGROV1 ovarian
[20] = system: TK-10 renal
[21] = system: A498 renal
[22] = system: NCI/ADR-RES ovarian
[23] = system: SR leukemia
[24] = system: NCI-H226 lung
[25] = system: HT29 colon
[26] = system: SNB-75 CNS
[27] = system: RPMI-8226 leukemia
[28] = system: SNB-19 CNS
[29] = system: OVCAR-4 ovarian
[30] = system: SN12C renal
[31] = system: SF-295 CNS
[32] = system: SW-620 colon
[33] = system: KM12 colon
[34] = system: T-47D breast
[35] = system: UO-31 renal
[36] = system: PC-3 prostate
[37] = system: HOP-92 NSCLC
[38] = system: 786-0 renal
[39] = system: EKVX NSCLC
[40] = system: OVCAR-8 ovarian
[41] = system: UACC-257 melanoma
[42] = system: HOP-62 NSCLC
[43] = system: HCT-15 colon
[44] = system: HS 578T breast
[45] = system: CCRF-CEM leukemia
[46] = system: COLO 205 colon
[47] = system: MALME-3M melanoma
[48] = system: M14 melanoma
[49] = system: BT-549 breast
[50] = system: SK-MEL-5 melanoma
[51] = system: SF-268 CNS
[52] = system: LOX IMVI melanoma
[53] = system: RXF 393 renal
[54] = system: MDA-MB-435
[55] = system: MDA-MB-231 breast
[56] = system: ACHN renal
[57] = system: NCI-H23 lung
[58] = system: UACC-62 melanoma

SMILES: O=C1NC(=O)C(c2c[nH]c3cc(Br)ccc23)=C1c1cnc[nH]1
- TGI [1]: 81.4 µM
- TGI [2]: 72.6 µM
- TGI [3]: > 100 µM
- TGI [4]: > 100 µM
- TGI [5]: > 100 µM
- TGI [6]: > 100 µM
- TGI [7]: > 100 µM
- TGI [8]: > 100 µM
- TGI [9]: > 100 µM
- TGI [10]: > 100 µM
- TGI [11]: > 100 µM
- TGI [12]: 98.7 µM
- TGI [13]: > 100 µM
- TGI [14]: > 100 µM
- TGI [15]: > 100 µM
- TGI [16]: > 100 µM
- TGI [17]: 93.3 µM
- TGI [18]: 79.3 µM
- TGI [19]: > 100 µM
- TGI [20]: > 100 µM
- TGI [21]: 52.2 µM
- TGI [22]: > 100 µM
- TGI [23]: > 100 µM
- TGI [24]: 7.87 µM
- TGI [25]: > 100 µM
- TGI [26]: > 100 µM
- TGI [27]: > 100 µM
- TGI [28]: > 100 µM
- TGI [29]: > 100 µM
- TGI [30]: > 100 µM
- TGI [31]: > 100 µM
- TGI [32]: > 100 µM
- TGI [33]: > 100 µM
- TGI [34]: > 100 µM
- TGI [35]: > 100 µM
- TGI [36]: > 100 µM
- TGI [37]: > 100 µM
- TGI [38]: > 100 µM
- TGI [39]: > 100 µM
- TGI [40]: > 100 µM
- TGI [41]: 44.9 µM
- TGI [42]: > 100 µM
- TGI [43]: > 100 µM
- TGI [44]: > 100 µM
- TGI [45]: > 100 µM
- TGI [46]: 63.2 µM
- TGI [47]: > 100 µM
- TGI [48]: > 100 µM
- TGI [49]: 75 µM
- TGI [50]: 25 µM
- TGI [51]: > 100 µM
- TGI [52]: > 100 µM
- TGI [53]: > 100 µM
- TGI [54]: > 100 µM
- TGI [55]: > 100 µM
- TGI [56]: > 100 µM

SMILES: O=C(O)CNCP(=O)(O)O
- TGI [1]: > 100 µM
- TGI [2]: > 100 µM
- TGI [3]: > 100 µM
- TGI [4]: > 100 µM
- TGI [5]: > 100 µM
- TGI [6]: > 100 µM
- TGI [7]: > 100 µM
- TGI [8]: > 100 µM
- TGI [9]: > 100 µM
- TGI [10]: > 100 µM
- TGI [11]: > 100 µM
- TGI [12]: > 100 µM
- TGI [13]: > 100 µM
- TGI [14]: > 100 µM
- TGI [15]: > 100 µM
- TGI [16]: > 100 µM
- TGI [17]: > 100 µM
- TGI [18]: > 100 µM
- TGI [19]: > 100 µM
- TGI [20]: > 100 µM
- TGI [21]: > 100 µM
- TGI [22]: > 100 µM
- TGI [23]: > 100 µM
- TGI [24]: > 100 µM
- TGI [25]: > 100 µM
- TGI [26]: > 100 µM
- TGI [27]: > 100 µM
- TGI [28]: > 100 µM
- TGI [29]: > 100 µM
- TGI [30]: > 100 µM
- TGI [31]: > 100 µM
- TGI [32]: > 100 µM
- TGI [33]: > 100 µM
- TGI [34]: > 100 µM
- TGI [36]: > 100 µM
- TGI [37]: > 100 µM
- TGI [57]: > 100 µM
- TGI [38]: > 100 µM
- TGI [39]: > 100 µM
- TGI [40]: > 100 µM
- TGI [41]: > 100 µM
- TGI [42]: > 100 µM
- TGI [43]: > 100 µM
- TGI [44]: > 100 µM
- TGI [45]: > 100 µM
- TGI [46]: > 100 µM
- TGI [47]: > 100 µM
- TGI [48]: > 100 µM
- TGI [58]: > 100 µM
- TGI [49]: > 100 µM
- TGI [50]: > 100 µM
- TGI [51]: > 100 µM
- TGI [52]: > 100 µM
- TGI [53]: > 100 µM
- TGI [54]: > 100 µM
- TGI [55]: > 100 µM
- TGI [56]: > 100 µM
